# Where two headings read alike, the source gives them in different places.
# How the values were obtained:
# [1] = Lipid nanoparticle size, PDI and encapsulation; type: physicochemical; details: Table 3
# [2] = Lipid nanoparticle size, PDI and encapsulation; type: physicochemical; details: Table 3; for Size (nm): lipid nanoparticle; for EE %: lipid nanoparticle encapsulation
# Method: In the context of nucleic acids, full encapsulation may be determined by performing a membrane-impermeable fluorescent dye exclusion assay, which uses a dye that has enhanced fluorescence when associated with nucleic acid. Encapsulation is determined by adding the dye to a lipid formulation, measuring the resulting fluorescence, and comparing it to the fluorescence observed upon addition of a small amount of nonionic detergent. Detergent-mediated disruption of the lipid layer releases the encapsulated nucleic acid, allowing it to interact with the membrane-impermeable dye. Nucleic acid encapsulation may be calculated as E=(I0−I)/I0, where I and I0 refer to the fluorescence intensities before and after the addition of detergent.
# [3] = In vivo biodegradability assay (lipid in liver); details: mouse liver, 48 h
# Mouse plasma stability = type: in vitro ADME, CD-1 mouse; details: 1 uM lipid
# Outline: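 Lipid at 1 μM starting concentration incubated in stirred CD-1 mouse plasma (sodium heparin) at 37° C.; samples at 0–120 min quenched with acetonitrile/methanol plus internal standard. LC-MS peak area relative to T=0 gave % remaining; T1/2 from first-order decay.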
# hEPO = hEPO mRNA expression evaluation (hEPO-LNPs); type: in vivo, Balb/c mice; details: serum hEPO after 6 hr; for EPO exprssn (ng/mL) 0.03 mpk: 0.03 mpk i.v.; for EPO exprssn (ng/mL) 0.1 mpk: 0.1 mpk i.v.
# factor VII = assay: Factor VII knock down evaluation (LNP with FVII siRNA); type: in vivo, Balb/C mice; details: for FVII KD % 0.01 mpk: 0.01 mpk i.v.; for FVII KD % 0.01 mpk / FVII KD % 0.03 mpk: plasma FVII after 48 h vs saline control; for FVII KD % 0.03 mpk: 0.03 mpk i.v.
# Outline: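 Female Balb/C mice, 7–8 weeks old, received FVII siRNA lipid nanoparticles intravenously at 0.03 or 0.01 mg/kg. Plasma was collected 48 h later and FVII protein measured by chromogenic assay at 405 nm against a control plasma calibration curve. Levels are relative to saline-treated controls.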
# [4] = Measured pKa in the indicated formulation; details: for pKa: EPO: measured in EPO formulation; for pKa: FVII: measured in FVII formulation
# Method: Measured pKa values were determined based on the pH measured in the indicated formulation (i.e., EPO or FVII formulation).
SMILES,PDI [1],Size (nm) [2],EE % [2],In vivo degradability (ng/tissue) at 48h 0.03 mpk ([3]; Table 1),In vivo degradability (ng/tissue) at 48h 0.1 mpk ([3]; Table 1),In vivo degradability (ng/tissue) at 48h 0.03 mpk ([3]; Table 2),In vivo degradability (ng/tissue) at 48h 0.1 mpk ([3]; Table 2),"Percent remaining in mouse plasma after 2 h (Mouse plasma stability; Table 1, mouse plasma 37 C)","Percent remaining in mouse plasma after 2 h (Mouse plasma stability; Table 2, mouse plasma 37 C)",EPO exprssn (ng/mL) 0.03 mpk (hEPO; Table 1),EPO exprssn (ng/mL) 0.1 mpk (hEPO; Table 1),EPO exprssn (ng/mL) 0.1 mpk (hEPO; Table 2),FVII KD % 0.01 mpk (factor VII; Table 1),FVII KD % 0.03 mpk (factor VII; Table 1),FVII KD % 0.01 mpk (factor VII; Table 2),FVII KD % 0.03 mpk (factor VII; Table 2),pKa ([4]; EPO formulation),pKa ([4]; FVII formulation),pKa: EPO ([4]; Table 2),pKa: FVII ([4]; Table 2),other results
"CC1CCC(CCC(=O)OCC(C)(COC(=O)CCC2CCC(C)CC2)COC(=O)CCN(CCC(=O)OCC(C)(COC(=O)CCC2CCC(C)CC2)COC(=O)CCC2CCC(C)CC2)C(=O)NCCCN(C)C)CC1 (centres unmarked) [Lipid 47, (((3,3′-((((3-dimethylamino)propyl)carbamoyl)azanediyl)bis(propanoyl))bis(oxy))bis(methylene))bis(2-methylpropane-2,1,3-triyl)tetrakis(3-(4-methylcyclohexyl)propanoate)]",0.089,98.26 nm,98.9%,–,–,–,–,–,–,–,–,–,–,–,–,–,–,–,–,–,–
"CCC1CCC(C(=O)OCC(COC(=O)C2CCC(CC)CC2)OC(=O)CCCN(CCCC(=O)OC(COC(=O)C2CCC(CC)CC2)COC(=O)C2CCC(CC)CC2)C(=O)SCCCN(C)C)CC1 (centres unmarked) [LIPID 16, ((4,4′-((((3-(Dimethylamino)propyl)thio)carbonyl)azanediyl)bis(butanoyl))bis(oxy))bis(propane-2,1,3-triyl)tetrakis(4-ethylcyclohexane-1-carboxylate)]",–,–,–,<340 ng/tissue,<340 ng/tissue,<340 ng/tissue,<340 ng/tissue,40%,40%,2088 ng/mL,6358 ng/mL,2088 ng/mL,58%,88%,58%,88%,6.5,6.45,–,–,pKa: EPO ([4]; Table 1): (6.50/; pKa: FVII ([4]; Table 1): 6.45)
CCCCCCCCC(=O)OCC(COC(=O)CCCCCCCC)OC(=O)CCN(CCC(=O)OC(COC(=O)CCCCCCCC)COC(=O)CCCCCCCC)C(=O)SCCCN(C)C [LIPID 13],–,–,–,<340 ng/tissue,<340 ng/tissue,<340 ng/tissue,<340 ng/tissue,74%,74%,–,–,1488.1 ng/mL,60%,87%,60%,87%,6.4,6.61,6.40,6.61,–
"CC1CCC(CCC(=O)OCC(C)(COC(=O)CCC2CCC(C)CC2)COC(=O)CCN(CCC(=O)OCC(C)(COC(=O)CCC2CCC(C)CC2)COC(=O)CCC2CCC(C)CC2)C(=O)CCCCN(C)C)CC1 (centres unmarked) [Lipid 49, (((3,3′-((5-(dimethylamino)pentanoyl)azanediyl)bis (propanoyl))bis(oxy))bis(methylene))bis(2-methylpropane-2,1,3-triyl)tetrakis(3-(4-methylcyclohexyl)propanoate)]",0.028,97.23 nm,98.9%,–,–,–,–,–,–,–,–,–,–,–,–,–,–,–,–,–,"FVII KD % @ 0.03 mg/kg (factor VII; Table 3, 0.03 mg/kg): 3.57%; pKa [4]: 7.5"
"CN(C)CCCSC(=O)N(CCCC(=O)OC(COC(=O)CCc1ccc2ccccc2c1)COC(=O)CCc1ccc2ccccc2c1)CCCC(=O)OC(COC(=O)CCc1ccc2ccccc2c1)COC(=O)CCc1ccc2ccccc2c1 [Lipid 44, ((4,4′-((((3-(dimethylamino)propyl)thio)carbonyl)azanediyl)bis(butanoyl))bis(oxy))bis(propane-2,1,3-triyl)tetrakis(3-(naphthalen-2-yl)propanoate)]",0.134,113.1 nm,85.7%,–,–,–,–,–,–,–,–,–,–,–,–,–,–,–,–,–,–
"CN(C)CCCSC(=O)N(CCCC(=O)OC(COC(=O)CCc1ccc(-c2ccccc2)cc1)COC(=O)CCc1ccc(-c2ccccc2)cc1)CCCC(=O)OC(COC(=O)CCc1ccc(-c2ccccc2)cc1)COC(=O)CCc1ccc(-c2ccccc2)cc1 [Lipid 42, ((4,4′-((((3-(dimethylamino)propyl)thio)carbonyl)azanediyl)bis(butanoyl))bis(oxy))bis(propane-2,1,3-triyl)tetrakis(3-([1,1′-biphenyl]-4-yl)propanoate)]",0.086,100.4 nm,88.2%,–,–,–,–,–,–,–,–,–,–,–,–,–,–,–,–,–,–
"CN(C)CCCSC(=O)N(CCCCCC(=O)OC(COC(=O)CCC1CCCCC1)COC(=O)CCC1CCCCC1)CCCCCC(=O)OC(COC(=O)CCC1CCCCC1)COC(=O)CCC1CCCCC1 [LIPID 12, ((6,6′-((((3-(Dimethylamino)propyl)thio)carbonyl)azanediyl)bis(hexanoyl))bis(oxy))bis(propane-2,1,3-triyl)tetrakis(3-cyclohexylpropanoate)]",–,–,–,BLOQ,BLOQ,BLOQ,BLOQ,57%,57%,286 ng/mL,768 ng/mL,768 ng/mL,91%,69%,91%,69%,6.46,6.61,6.46,6.61,EPO exprssn (ng/mL) 0.03 mpk (hEPO; Table 2): 286 ng/mL
"CN(C)CCCSC(=O)N(CCCC(=O)OC(COC(=O)CCCC1CCCCC1)COC(=O)CCCC1CCCCC1)CCCC(=O)OC(COC(=O)CCCC1CCCCC1)COC(=O)CCCC1CCCCC1 [LIPID 11, ((4,4′-((((3-(Dimethylamino)propyl)thio)carbonyl)azanediyl)bis(butanoyl))bis(oxy))bis(propane-2,1,3-triyl)tetrakis(4-cyclohexylbutanoate)]",–,–,–,BLOQ,BLOQ,BLOQ,BLOQ,40%,40%,169 ng/mL,548 ng/mL,548 ng/mL,84%,22%,84%,22%,6.6,6.68,6.6,6.68,EPO exprssn (ng/mL) 0.03 mpk (hEPO; Table 2): 169 ng/mL
"CC1CCC(CCC(=O)OCC(C)(COC(=O)CCC2CCC(C)CC2)COC(=O)CCN(CCC(=O)OCC(C)(COC(=O)CCC2CCC(C)CC2)COC(=O)CCC2CCC(C)CC2)C(=O)N(C)CCCN(C)C)CC1 (centres unmarked) [Lipid 48, (((3,3′-((((3-dimethylamino)propyl)methylcarbamoyl)azanediyl)bis(propanoyl))bis(oxy))bis(methylene))bis(2-methylpropane-2,1,3-triyl)tetrakis(3-(4-methylcyclohexyl)propanoate)]",0.065,103.2 nm,96.2%,–,–,–,–,–,–,–,–,–,–,–,–,–,–,–,–,–,pKa [4]: 7.18

# Source: patent publication US20240391870A1 (Arcturus Therapeutics, Inc., priority 2023, published 2024)
